Measurements reported in article PMC11187126, “Structure and dynamics of the pyroglutamylated RF-amide peptide QRFP receptor GPR103” (Nature Communications, 2024).
Where two headings read alike, the source gives them in different places. No end group written: not given here.

Target: T1, GPR103 E297^6.59A (Homo sapiens, UniProt Q96P65, E297A)
T1 construct: we used human full-length QRFPR-encoding plasmids; expressed in transfected cells; host or cells: HEK293 cells (HEK293A in the flow cytometry section), pCAGGS vector
T1 sequence (Q96P65 1-431 E297A): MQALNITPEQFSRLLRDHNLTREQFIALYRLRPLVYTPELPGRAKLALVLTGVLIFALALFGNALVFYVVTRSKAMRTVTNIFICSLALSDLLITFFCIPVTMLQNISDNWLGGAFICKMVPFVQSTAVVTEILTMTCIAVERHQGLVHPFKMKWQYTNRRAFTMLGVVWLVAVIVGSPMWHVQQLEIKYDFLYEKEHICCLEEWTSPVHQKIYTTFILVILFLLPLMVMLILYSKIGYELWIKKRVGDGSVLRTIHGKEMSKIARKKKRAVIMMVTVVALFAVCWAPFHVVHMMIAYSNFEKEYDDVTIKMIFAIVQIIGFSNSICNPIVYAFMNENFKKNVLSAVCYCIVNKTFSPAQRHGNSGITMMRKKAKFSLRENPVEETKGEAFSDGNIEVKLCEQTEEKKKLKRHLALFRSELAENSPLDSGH
Experiment: TGFα shedding assay; Exp. level >WT (1:1)
Type: cell-based
Method: For the TGFα shedding assay and the flow cytometry analysis, we used human full-length QRFPR-encoding plasmids. Specifically, GPR103 was N-terminally modified with an HA signal sequence followed by a FLAG epitope and then a flexible linker ([…]; the FLAG epitope is underlined) and inserted into the pCAGGS vector. Plasmid encoding GPR103 mutants were generated using Quickchange Site-Directed Mutagensis kit (Agilent).
The TGFα shedding assay was performed as described previously with minor modifications. Plasmid transfection was performed in a 6-well plate with a mixture of 500 ng (per well in a 6-well plate) AP-TGFα-encoding plasmid and 200 ng GPR103-encoding plasmid. After 1-day culture, the transfected cells were harvested by trypsinization, pelleted by centrifugation at 190 × g for 5 min, and washed once with 5 mM HEPES (pH 7.4)-containing Hank’s Balanced Salt Solution (HBSS). After centrifugation, the cells were resuspended in 8 mL of the HEPES-containing HBSS. The cell suspension was seeded in a 96-well culture plate (cell plate) at a volume of 90 μL (per well hereafter) and incubated in a 37 °C incubator with 5% CO2 for 30 min. […] After spinning the cell plates at 190 × g for 2 min, 80 μL of conditioned media was transferred to an empty 96-well plate (conditioned media (CM) plate). Then, 80 μL of AP reaction solution (10 mM p-nitrophenylphosphate (p-NPP), 120 mM Tris-HCl (pH 9.5), 40 mM NaCl, and 10 mM MgCl2) was dispensed into the cell plates and the CM plates. Absorbance at 405 nm of the plates was measured using a microplate reader (SpectraMax 340 PC384, Molecular Devices) before and after 1-h incubation at room temperature. Ligand-induced AP-TGFα release was calculated by subtracting spontaneous AP-TGFα release signal from ligand-induced AP-TGFα release signal. The AP-TGFα release signals were fitted to a four-parameter sigmoidal concentration–response curve, using the Prism 10 software (GraphPad Prism). For each replicate experiment, the pEC50 parameter (negative logarithmic values of EC50 values) of the individual GPR103 mutants were normalized to that of the wild-type GPR103 performed in parallel, and resulting ∆pEC50 values were used to denote ligand response activity of the mutants. […]
Exp. le vel: WT (1:5 0)Exp. le vel: WT (1:5 0)Exp. le vel: WT (1:5 0)Exp. le vel: WT (1:2 0)Exp. le vel: WT (1:2 0)Exp. le vel: WT (1:1 0) […]
L1 4N - t e r mA F2 5N - t e r mA I 2 6N - t e r mA Y 2 9N - t e r mA C 9 82 .5 7A T10 22 .6 1A Exp . l eve l: WT (1 :5)Exp . l evel : >WT (1 :1)Exp. le vel: WT (1:2 0)Exp. le vel: WT (1:2 0)Exp. le vel: WT (1:5 0)Exp . l eve l: WT (1 :1) […]
Exp. le vel: WT (1:1 0)Exp. le vel: WT (1:2 0) C 1 1 83 .2 5AExp. le vel: WT (1:5 0)Exp. le vel: WT (1:5 0)Exp. le vel: WT (1:2 0)Exp . l eve l: WT (1 :5) […]
Exp. le vel: WT (1:5 0)Exp. le vel: WT (1:1 0)Exp. le vel: WT (1:5 0) E203ECL2AExp . l evel : >WT (1 :1)Exp. le vel: WT (1:5 0)Exp. le vel: WT (1:5 0) […]
Exp . l eve l: WT (1 :1) F28Exp. le vel: WT (1:5 0) C 2 8 56 .4 7AExp. le vel: WT (1:2 0) WExp. le vel: WT (1:2 0) F28Exp. le vel: WT (1:5 0)Exp . l evel : >WT (1 :1) […]
Exp. le vel: WT (1:5 0)Exp. le vel: WT (1:5 0) C 3 2 77 .4 8AExp . l eve l: WT (1 :5)Exp . l evel : >WT (1 :1)Exp . l evel : >WT (1 :1) […]
Suppl eme nt ary Figure 1 | Mutational analysis of GPR103. […]
mutants. Data are presented as mean values ± SEM, normally n=3-5; dots), each performed in triplicate. b-d Cell-surface expression (b) and QRFP26-in-duced activation of GPR103 (c, d) were analyzed by the flow cytometry and the TGFα shedding assay, respectively. From the concentration–response curves (a), Emax (c) and ΔpEC50 (d) values relative to the wild type were calculated. Colors in the mutant bars indicate an expression level matching to that of titrated wild type. Statistical analyses were performed using the ordinary one-way ANOVA followed by Dunnett tests with the expression-matched […]

Work on TSGPLGNLAEELNGYSRKKGGFSFRF-NH2 [QRFP26] yielded an Emax (Exp. #1) of 106.77 % WT, an Emax (Exp. #2) of 105.91 % WT and an Emax (Exp. #3) of 110.91 % WT. The Emax (mean, read-out: Emax) was 108%, the EC50 (n = 3) was 0.0282 µM and the Emax (n = 3, read-out: Emax) was 112 ± 1.3%.
